Assay results as given in patent publication US5236912A, “Antiandrogenic [3,2-c]pyrazole and [3,2-d]triazole steroids” (Schering Aktiengesellschaft, priority 1990, dated 1993).
Values joined by “and” are separate entries in the source; they are usually repeats but may differ in a detail not shown here. Identical values can stand only once.

How the values were obtained:
testosterone levels [1] = test: peripheral selectivity / counter regulation: testosterone levels in rats after administration of the compound; assay type: in vivo; details: for Counter Regulation: testosterone levels 24 hours after 10 mg s.c., lack of counter regulation = peripheral selectivity
Procedure: In order to test peripheral selectively, the testosterone levels are measured in rats 24 hours after administration of 10 mg s.c. of the compound: lack of counter regulation is evaluated as peripheral selectively.

[2] = test system: orchiectomized, testosterone propionate-substituted rats; details: compound described in EP 0 207 375 A1; cited from earlier work
[3] = test system: orchiectomized, testosterone propionate-substituted rats; test: classical antiandrogen test on orchiectomized, testosterone propionate-substituted rats (inhibition of prostate weight); assay type: in vivo; details: 3 mg s.c.; for Antiandrogen Test: % Inhibition of Prostate Weight: orchiectomized, testosterone propionate-substituted rats (0.1 mg/animal/day), seven day treatment
Procedure: These two compounds, the classical antiandrogen test on orchiectomized, testosterone propionate-substituted rats (dose: 0.1 mg/animal/day) show, after a seven day treatment (s.c.) with 3 mg/animal/day) of the antiandrogen, merely about 30% of the antiandrogenic potency of cyproterone acetate (17α-acetoxy-6-chlor-1α,2α-methylene-4,6-pregnadiene-3,20-dione) which constitutes the standard antiandrogen (Friedmund Neumann, Rudolf Wiechert, "Die Geschichte von Cyproteronacetat, Ungewoehnliche Wege bei der Entwicklung eines Arzneimittels" [The History of Cyproterone Acetate, the Development of a Medicine Along Unusual Routes], MPS Medizinisch-Pharmazeutische Studiengesellschaft e.V. [Association for Medical-Pharmaceutical Studies] Mainz, Mainz (1984).

testosterone levels [4] = details: in words, background statement; cited from earlier work

SMILES	testosterone level in the serum (testosterone levels [1]; central effect (counter regulation by feedback))	peripheral selectivity (testosterone levels [1]; lack of counter regulation is evaluated as peripheral selectivity)	Counter Regulation (testosterone levels [1])	antiandrogen activity compared with cyproterone acetate [2]	Antiandrogen Test: % Inhibition of Prostate Weight [3]	effect on the hypothalamus-hypophysis system (testosterone levels [4])	Antiandrogen Test: % Inhibition of Prostate Weight, comparison Cyproterone Acetate (value in parentheses) ([3]; cyproterone acetate comparison value)
CC1=C2CCC3C(CCC4(C)C3CCC4(C)O)C2(C)Cc2cn(S(C)(=O)=O)nc21 (stereo not drawn) [E, 4,17α-dimethyl-1'-mesyl-1'H-androst-4-eno[3,2-c]pyrazol-17β-ol]	raises the testosterone level in the serum	no peripheral selectivity	Yes	comparable to cyproterone acetate	88%	–	–
CC12Cc3nn(S(C)(=O)=O)nc3C=C1CCC1C2CCC2(C)C1C=CC2(C)O (stereo not drawn) [D, 2'-mesyl-17α-methyl-2'H-triazolo[4',5':2,3]androsta-4,15-dien-17β-ol]	–	–	No	–	97%	–	–
CC(=O)O[C@]1(C(C)=O)CC[C@H]2[C@@H]3C=C(Cl)C4=CC(=O)[C@@H]5C[C@@H]5[C@]4(C)[C@H]3CC[C@@]21C [Cyproterone Acetate, 17α-acetoxy-6-chlor-1α,2α-methylene-4,6-pregnadiene-3,20-dione]	–	–	–	–	–	affecting, as does the latter compound, the hypothalamus-hypophysis system	97% and 86% and 87% and 95% and 100%
CC12Cc3cn(S(C)(=O)=O)nc3C=C1C1(CC1)CC1C2CCC2(C)C1CCC2(C)O (stereo not drawn) [B, 6,6-ethylene-1'-mesyl-17α-methyl-1'H-androst-4-eno[3,2-c]pyrazol-17β-ol]	–	–	No	–	73%	–	–
CC12Cc3cn(S(C)(=O)=O)nc3C=C1CCC1C2CCC2(C)C1C=CC2(C)O (stereo not drawn) [A, 1'-mesyl-17α-methyl-1'H-androsta-4,15-dieno[3,2-c]pyrazol-17β-ol]	–	–	No	–	80%	–	–
CC1CC2=Cc3nn(S(C)(=O)=O)cc3CC2(C)C2CCC3(C)C(CCC3(C)O)C12 (stereo not drawn) [C, 7α,17α-dimethyl-1'-mesyl-1'H-androst-4-eno[3,2-c]pyrazol-17β-ol]	–	–	No	–	53%	–	–
